Measured values: US5013544A, “Contraceptive methods and compositions” (The Victoria University of Manchester, priority 1988, dated 1991)

Key:
[1] = Stability of spermicidal activity of chlorhexidine / composition in solution; assay type: physicochemical
sperm (semen) = experiment: Spermicidal action in isotonic aqueous sucrose: % of sperm motile 1 minute after contact (Example 2); assay type: cell-based, human
Protocol: (§1) Chlorhexidine, as the diacetate salt, and/or nonoxynol-9 (50 μl. of an appropriate aqueous dilution) was dissolved in Tyrodes T6 balanced salt solution supplemented with 4 mg./ml. of human albumin. The solution was prepared and used immediately, by being mixed with 50 μl. of fresh human semen with a sperm concentration of at least 50 million per ml, and a motility of at least 80%, and incubated at 25 degrees C. for about 1 minute.
(§2) The motility of the sperm so treated was measured by one of two methods:
(§3) (1) If the concentration of chlorhexidine caused protein precipitation, motility was estimated by phase contrast microscopy at 200× magnification in a 10 μm deep counting chamber.
(§4) (2) If the solution remained optically clear, motility was measured by laser Doppler spectroscopy. This technique involves the analysis by auto-correlation of the fraction of the scattered laser light which contains the Doppler-shifted frequencies generated by interaction between the incident laser and the sperm head.
The procedure of Example 1 was repeated, using solutions of the specified compounds (nonoxenol-9 and chlorhexidine diacetate) in an isotonic aqueous solution of sucrose, the spermicidal action of nonoxenol-9 and chlorhexidine diacetate, derived from five examinations, each being measured in duplicate. The concentrations are the final values in semen.
The values expressed are the percentages, expressed as a mean, of the sperm which are motile 1 minute after contact with the spermicide.

human semen (sperm) = experiment: Inhibition of motility of human sperm, ~1 min, in Tyrodes T6 medium (Example 1); assay type: cell-based; conditions: about 1 minute, 25 degrees C., Tyrodes T6 + human albumin
Protocol: as §1, §2, §3, §4

sperm = experiment: Site of spermicidal action (vagina, cervical mucus); conditions: vagina and cervical mucus; no test described

| Molecule | loss of spermicidal activity ([1]; chloride ion at physiological concentrations) | tendency to lose spermicidal activity ([1]; in some circumstances and formulations, associated with certain anions) | stability of aqueous solution ([1]; isotonic aqueous sucrose solution) | percentage of the sperm which are motile 1 minute after contact (mean) (sperm (semen); Chlorhexidine 0.5 mg/ml, nonoxynol-9 0, untreated 50.37) | percentage of the sperm which are motile 1 minute after contact (mean) (sperm (semen); Chlorhexidine 1.0 mg/ml, nonoxynol-9 0, untreated 50.37) | percentage of the sperm which are motile 1 minute after contact (mean) (sperm (semen); Chlorhexidine 2.0 mg/ml, nonoxynol-9 0, untreated 50.37) | percentage of the sperm which are motile 1 minute after contact (mean) (sperm (semen); Chlorhexidine 5.0 mg/ml, nonoxynol-9 0, untreated 50.37) | % Inhibition of motility (human semen (sperm); 0.5 mg./ml.) | inhibition at 2000 µg/mL (human semen (sperm); Sperm, 1 min, 2 mg./ml.) | site of spermicidal action (sperm) | percentage of the sperm which are motile 1 minute after contact (mean) (sperm (semen); Nonoxynol-9 0.2 mg/ml, chlorhexidine 0, untreated 50.37) | percentage of the sperm which are motile 1 minute after contact (mean) (sperm (semen); Nonoxynol-9 0.4 mg/ml, chlorhexidine 0, untreated 50.37) | percentage of the sperm which are motile 1 minute after contact (mean) (sperm (semen); Nonoxynol-9 0.6 mg/ml, chlorhexidine 0, untreated 50.37) | % Inhibition of motility (human semen (sperm); 2 mg./ml.) |
| --- | --- | --- | --- | --- | --- | --- | --- | --- | --- | --- | --- | --- | --- | --- |
| [H]/N=C(\N/C(=N/[H])NCCCCCCNC(=N)NC(=N)Nc1ccc(Cl)cc1)Nc1ccc(Cl)cc1 [Chlorhexidine, 1:6-di-(N-p-chlorophenyl-diguanido)-hexane] | lose its spermicidal activity in less than two hours | marked tendency to lose its spermicidal activity | remained stable for greater than three days | 39.32% | 16.14% | 10.02% | 0% | ZERO | 5% | acts as a spermicide both in the vagina and in the cervical mucus |  |  |  |  |
| Nonoxynol-9 |  |  |  |  |  |  |  | ZERO |  | only spermicidal in the vagina and does not enter the cervical mucus | 31.09% | 0% | 0% | 100% |
